The values that follow come from patent publication US6872727B1, “Polycyclic pyrimidine -2,4(1H,3H)-diones with functionalized alkyl residues at the 1- and/or 3-position(s); methods for their synthesis and pharmaceutical preparation” (Privates Institut fur Biomedizinische Forschung und Beratung, priority 1999, dated 2005).

For experiment [1], the target named is T1, catalytic domain of human matrix metalloproteinase-8 (MMP-8; neutrophil collagenase) (Homo sapiens, UniProt P22894).
T1 construct: express heterologously only the catalytic domain, rather than the entire MMP-8, in Escherichia coli; made in house; host or cells: Escherichia coli
The experiment is described as follows: Inhibition of catalytic domain of human MMP-8, fluorimetric assay, Dixon plot. To be noted: recombinant catalytic domain, Mca-Pro-Leu-Gly-Leu-Dap(Dnp)-Ala-Arg-NH2 substrate. The experiment is classed as biochemical. From the text:
The catalytic domain of MMP-8 was chosen as a further test enzyme because of its high stability and constitutive activity, obviating the need for enzymatic or chemical activation, which is a well-known source of error, e.g. the commonly used organomercurial compounds used to activate pro-MMPs may interfere in subsequent assays or affect the activity of the enzyme, leading to erroneous interpretation of results. The cloning strategy was designed to express heterologously only the catalytic domain, rather than the entire MMP-8, in Escherichia coli. With the so-constructed expressed catalytic domain, we obtained a stable enzymatically active, highly pure enzyme that is well suited for routine investigation of the efficacy of the synthetic inhibitors and provides highly reproducible test results.
The cloning and expression of the recombinant catalytic domain of MMP-8 follows the protocol developed by Schnierer et al. (Schnierer, S., Kleine, T., Gote, T., Hilleman, A., Knäuper, V., and Tschesche, H., 1993, The recombinant catalytic domain of human neutrophil collagenase lacks type I collagen substrate specificity, Biochem. Biophys. Res. Commun. 191, 319-326).
(§1) The enzymatic cleavage of commercially available synthetic internally quenched fluorigenic peptide substrates such as 7-methylcoumarin-4-yl-acetyl-prolyleucyl-glycyl-leucyl-(dinitrophenyl-L-α,β-diaminopropionyl)-alanyl-arginylamide (Mca-Pro-Leu-Gly-Leu-Dap(Dnp)-Ala-Arg-NH2) at the scissile -Gly-Leu-peptide bond separates the fluorescent Mca group from the dinitrophenol quencher, resulting in a strong linear increase in fluorescence intensity that can be readily measured in a fluorimeter (λexitation328 nm, λemission 393 nm) over the first few minutes of the reaction. The specificity of the assay for matrix metalloproteinases is provided by the type I collagen-derived sequence -Pro-Leu-Gly-Leu- in the synthetic substrate, as well as by the incubation conditions. To test the efficacy of the synthetic collagenase/MMP inhibitors, the residual enzymatic activity remaining after an incubation of enzyme plus different amounts of inhibitor is measured at a fixed enzyme and substrate concentration. For each inhibitor, three test series at different fixed substrate concentrations were carried out. From the time-dependent increase in fluorescence intensity measured, the velocity (v) of the enzymatic activity can be calculated as increase in arbitrary fluorescence intensity units per minute. The inhibition constant Ki is calculated graphically by the method of Dixon (1953) by plotting the reciprocal of the reaction velocity 1/v on the ordinate, and the inhibitor concentration on the abscissa. The x-intercept of the linear plot is defined as minus K1 value.
1984 μl assay buffer (100 mM Tris-HCl pH 7,5, 100 mM NaCl, 10 mM CaCl2, 0,05% Brij 35) • 2 μl inhibitor dissolved in DMSO, or DMSO alone as a solvent control • 4 μl enzyme (MMP-2, MMP-9, or the catalytic domain of MMP-8) • 10 μl Mca-Pro-Leu-Gly-Leu-Dap(Dnp)-Ala-Arg-NH2 in DMSO Method • 1. Incubate buffer, enzyme, and inhibitor for 5 min at room temperature, with stirring. • 2. Start the reaction by adding 10 μl substrate in DMSO • 3. Record the increase in fluorescence intensity over 2 min. Confirmation of the Inhibitory Activity by Protein Zymographic Analysis

Experiment [2] has as its target T2, human matrix metalloproteinase-2 (MMP-2; gelatinase A) (Homo sapiens, UniProt P08253).
T2 construct: to prepare the enzymatically active mature form of the enzyme; endogenous in cells; host or cells: human dermal fibroblasts (secreted into culture supernatant)
T2 sequence (P08253 110-660): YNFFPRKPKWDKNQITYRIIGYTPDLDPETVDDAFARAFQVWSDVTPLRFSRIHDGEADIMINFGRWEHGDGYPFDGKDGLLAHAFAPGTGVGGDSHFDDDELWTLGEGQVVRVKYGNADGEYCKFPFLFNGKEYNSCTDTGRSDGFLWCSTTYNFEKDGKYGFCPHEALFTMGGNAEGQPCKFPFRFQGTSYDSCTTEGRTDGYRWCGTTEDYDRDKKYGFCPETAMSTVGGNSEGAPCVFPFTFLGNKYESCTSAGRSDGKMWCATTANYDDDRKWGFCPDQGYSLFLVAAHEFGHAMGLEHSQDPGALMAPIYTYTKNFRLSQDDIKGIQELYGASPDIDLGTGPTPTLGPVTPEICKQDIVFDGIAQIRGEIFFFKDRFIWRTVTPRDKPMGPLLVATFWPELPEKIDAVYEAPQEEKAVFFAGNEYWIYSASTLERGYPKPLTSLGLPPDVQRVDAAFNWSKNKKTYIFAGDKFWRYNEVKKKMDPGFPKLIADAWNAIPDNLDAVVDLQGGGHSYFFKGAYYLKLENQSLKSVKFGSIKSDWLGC
The experiment is described as follows: Inhibition of human matrix metalloproteinase-2 (gelatinase A). Particulars: trypsin-activated MMP-2 from human dermal fibroblast culture supernatant; read-out: MMP-2 (50% inhibition). Format: biochemical.
Text: MMP-2 is easily prepared by standard procedures from the culture medium of cultivated human fibroblasts in reasonable quantities, and is therefore readily available. […] A screening system based on the measurement of the proteolytic activity of MMP-2 was developed to analyse the inhibitory effects of the various inhibitors described in Table 1.
To this end, human dermal fibroblasts were obtained and maintained in culture using standard methods. The cell-free culture supernatant containing the secreted pro-MMP-2 was treated with trypsin. The trypsin was inactivated with the specific active-site serine proteinase inhibitor Nα-p-tosyl-L-lysine-chloromethylketone (TLCK), and the active MMP-2 was partially purified by gel filtration on Sepharose 4B. The isolated MMP-2 was identified and characterized by the use of a commercially available immunoassay.
A simple nonradioactive assay was developed to measure MMP-2 activity using gelatin as a substrate that allows both a large number of samples to be analysed in parallel and to generate kinetic data. Partially purified MMP-2 was incubated with a suitable dilution of gelatin under standardized conditions (time, buffer, pH, temperature, inhibitor, additives), and uncleaved gelatin was separated from degradation products by suction filtration through a nitrocellulose filter. High-molecular-weight gelatin is thereby bound to the nitrocellulose filter, and the low-molecular-weight gelatin-derived peptides pass through it. The nitrocellulose-bound gelatin can be stained with Ponceau S or Commassie Brilliant Blue protein stains, and the degree of staining quantified densitometrically using a commercially available electrophoresis gel documentation system supported by dedicated analytical software. The nitrocellulose filtration is conducted using a commercially available dot- or slot-blotting apparatus.
The gelatinase assay described here has been validated by comparison with results obtained with an established collagenase assay using radioactive or fluorescently labeled collagen as substrate.
as §1
1984 μl assay buffer (100 mM Tris-HCl pH 7,5, 100 mM NaCl, 10 mM CaCl2, 0,05% Brij 35) • 2 μl inhibitor dissolved in DMSO, or DMSO alone as a solvent control • 4 μl enzyme (MMP-2, MMP-9, or the catalytic domain of MMP-8) • 10 μl Mca-Pro-Leu-Gly-Leu-Dap(Dnp)-Ala-Arg-NH2 in DMSO Method • 1. […]

T1 sequence (P22894 100-262 limits assumed): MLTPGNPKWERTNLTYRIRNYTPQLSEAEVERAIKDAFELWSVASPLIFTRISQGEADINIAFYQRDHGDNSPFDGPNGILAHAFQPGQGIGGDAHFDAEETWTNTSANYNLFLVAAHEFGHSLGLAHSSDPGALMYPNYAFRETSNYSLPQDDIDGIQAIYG

With `O=c1[nH]c(=O)n(CCS)c2ccccc12` [Example 5, 1-(2-mercaptoethyl)-chinazolin-2,4(1H,3H)-dione], in experiment [1], the Ki (in general, a dissociation constant, usually derived from enzyme kinetics or from competition with a known ligand) was found to be 70 µM. Moreover, the IC50 in experiment [2] came out at 61.3 µM.

For the molecule `Cn1c(=O)c2sccc2n(CCS)c1=O` [Example 17, 1-(2-mercaptoethyl)-3-methyl-thieno[3,2-d]-pyrimidine-2,4(1H,3H)-dione], the “MMP-8 (Ki value)” value in experiment [1] was “negative”. Further, in experiment [2], the IC50 was 20 µM.

As to `CC(CCS)n1c(=O)[nH]c2ccccc2c1=O` (racemic) [Example 18, (R,S)-3-[3-(1-methyl)-mercaptopropyl]-chinazolin-2,4(1H,3H)-dione], in experiment [1], the inhibition constant (Ki) was 6 µM. Besides, in experiment [2], the IC50 is 8.3 µM.

Regarding `Cn1c(=O)c2sccc2n(CCCS)c1=O` [Example 14, 1-(3-mercaptoprop-1-yl)-3-methyl-thieno(3,2-d)-pyrimidin-2,4(1H,3H)-dione], the “MMP-8 (Ki value)” value in experiment [1] is given as “negative”. The IC50 in experiment [2] came to 20 µM.

In the case of `O=c1[nH]c2ccccc2c(=O)n1CCCCS` [Example 12, 3-(4-mercaptobut-1-yl)-chinazolin-2,4(1H,3H)-dione], the Ki in experiment [1] amounted to 11 µM. In experiment [2], the IC50 was 8.3 µM.

Turning to `Cn1c(=O)c2ccccc2n(CCCS)c1=O` [Example 7, 1-(3-mercaptoprop-1-yl)-3-methyl-chinazolin-2,4(1H,3H)-dione], the “MMP-8 (Ki value)” value in experiment [1] was “negative”. Besides, in experiment [2], the IC50 came out at 6 µM.

As to `O=c1[nH]c(=O)n(CCCS)c2ccccc12` [Example 4, 1-(3-mercaptopropyl)-chinazolin-2,4(1H,3H)-dione], in experiment [1], the Ki was 7 µM. The IC50 in experiment [2] turned out to be 5 µM.

Turning to `CC(S)CCn1c(=O)[nH]c(=O)c2ccccc21` (racemic) [Example 3, (R,S)-1-(3-mercaptobut-1-yl)-chinazolin-2,4(1H,3H)-dione], in experiment [1], the Ki was 38.5 µM. Also, the IC50 in experiment [2] worked out at 13.2 µM.
